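Results reflect a 48-hour exposure of cells in 96-well plates to compound at five concentrations. At the TGI there is no net growth.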
What was measured:
Assay in all cases: growth of human tumour cells (NCI), 48 h
786-0 renal = test system: 786-0 renal
A498 renal = test system: A498 renal
A549 NSCLC = test system: A549 NSCLC
ACHN renal = test system: ACHN renal
BT-549 breast = test system: BT-549 breast
CAKI-1 renal = test system: CAKI-1 renal
CCRF-CEM leukemia = test system: CCRF-CEM leukemia
COLO 205 colon = test system: COLO 205 colon
DU-145 prostate = test system: DU-145 prostate
EKVX NSCLC = test system: EKVX NSCLC
HCC-2998 colon = test system: HCC-2998 colon
HCT-116 colon = test system: HCT-116 colon
HCT-15 colon = test system: HCT-15 colon
HL-60(TB) leukemia = test system: HL-60(TB) leukemia
HOP-62 NSCLC = test system: HOP-62 NSCLC
HOP-92 NSCLC = test system: HOP-92 NSCLC
HS 578T breast = test system: HS 578T breast
HT29 colon = test system: HT29 colon
IGROV1 ovarian = test system: IGROV1 ovarian
K-562 leukemia = test system: K-562 leukemia
KM12 colon = test system: KM12 colon
LOX IMVI melanoma = test system: LOX IMVI melanoma
M14 melanoma = test system: M14 melanoma
MALME-3M melanoma = test system: MALME-3M melanoma
MCF7 breast = test system: MCF7 breast
MDA-MB-231 breast = test system: MDA-MB-231 breast
MDA-MB-435 = test system: MDA-MB-435
MDA-N = test system: MDA-N
MOLT-4 leukemia = test system: MOLT-4 leukemia
NCI-H226 lung = test system: NCI-H226 lung
NCI-H23 lung = test system: NCI-H23 lung
NCI-H460 lung = test system: NCI-H460 lung
NCI-H522 lung = test system: NCI-H522 lung
NCI/ADR-RES ovarian = test system: NCI/ADR-RES ovarian
OVCAR-3 ovarian = test system: OVCAR-3 ovarian
OVCAR-4 ovarian = test system: OVCAR-4 ovarian
OVCAR-5 ovarian = test system: OVCAR-5 ovarian
OVCAR-8 ovarian = test system: OVCAR-8 ovarian
PC-3 prostate = test system: PC-3 prostate
RPMI-8226 leukemia = test system: RPMI-8226 leukemia
RXF 393 renal = test system: RXF 393 renal
SF-268 CNS = test system: SF-268 CNS
SF-295 CNS = test system: SF-295 CNS
SF-539 CNS = test system: SF-539 CNS
SK-MEL-2 melanoma = test system: SK-MEL-2 melanoma
SK-MEL-28 melanoma = test system: SK-MEL-28 melanoma
SK-MEL-5 melanoma = test system: SK-MEL-5 melanoma
SK-OV-3 ovarian = test system: SK-OV-3 ovarian
SN12C renal = test system: SN12C renal
SNB-19 CNS = test system: SNB-19 CNS
SNB-75 CNS = test system: SNB-75 CNS
SR leukemia = test system: SR leukemia
SW-620 colon = test system: SW-620 colon
T-47D breast = test system: T-47D breast
TK-10 renal = test system: TK-10 renal
U251 CNS = test system: U251 CNS
UACC-257 melanoma = test system: UACC-257 melanoma
UACC-62 melanoma = test system: UACC-62 melanoma
UO-31 renal = test system: UO-31 renal

Measured: TGI

Cc1ccc(N=Nc2c(O)c(S(=O)(=O)O)cc3cc(S(=O)(=O)O)ccc23)c(C)c1
> 100 µM: 786-0 renal | A498 renal | A549 NSCLC | ACHN renal | BT-549 breast | CAKI-1 renal | CCRF-CEM leukemia | COLO 205 colon | DU-145 prostate | EKVX NSCLC | HCC-2998 colon | HCT-116 colon | HCT-15 colon | HL-60(TB) leukemia | HOP-62 NSCLC | HOP-92 NSCLC | HS 578T breast | HT29 colon | IGROV1 ovarian | K-562 leukemia | KM12 colon | LOX IMVI melanoma | M14 melanoma | MALME-3M melanoma | MCF7 breast | MDA-MB-231 breast | MDA-MB-435 | MDA-N | MOLT-4 leukemia | NCI-H226 lung | NCI-H23 lung | NCI-H460 lung | NCI-H522 lung | NCI/ADR-RES ovarian | OVCAR-3 ovarian | OVCAR-4 ovarian | OVCAR-5 ovarian | OVCAR-8 ovarian | PC-3 prostate | RPMI-8226 leukemia | RXF 393 renal | SF-268 CNS | SF-295 CNS | SF-539 CNS | SK-MEL-2 melanoma | SK-MEL-28 melanoma | SK-MEL-5 melanoma | SK-OV-3 ovarian | SN12C renal | SNB-19 CNS | SNB-75 CNS | SR leukemia | SW-620 colon | T-47D breast | TK-10 renal | U251 CNS | UACC-257 melanoma | UACC-62 melanoma | UO-31 renal

From PubChem BioAssay (NCI)
